Measurements taken from patent US20250121013A1, “USE OF BACILLUS AMYLOLIQUEFACIENS FOR PREVENTING AND TREATING PARKINSON'S DISEASE” (Artugen Therapeutics Ltd., priority 2021, published 2025).
In brackets after ≈: the same amount, converted by molar mass.

Key:
[1] = test system: ART24; test: Antibiotic susceptibility of ART24, MIC, VetMIC panels (Table 2); assay type: cell-based, Bacillus amyloliquefaciens; details: for MIC: Bacillus amyloliquefaciens, read-out: ART24 MIC
Experimental: The minimum inhibitory concentration (MIC) of the listed antimicrobials is expressed as μg/mL. […] The wells of the prefabricated 96-well plates were filled with 100 μL of the final suspension. The plates were sealed with an […], Sigma Aldrich) sealing film (to facilitate growth of the aerobic Bacillus. The plates were then incubated for 24 hr at 37° C. The results are recorded after 24 hours as the lowest concentration of the antibiotic to inhibit visible growth. The prefabricated panels […], Uppsala, Sweden) comprising the antibiotics ampicillin, vancomycin, gentamicin, kanamycin, streptomycin, erythromycin, clindamycin, tetracycline, chloramphenicol, neomycin, penicillin, quinupristin-dalfopristin, linezolid, trimethoprim, ciprofloxacin and rifampicin were used.

[2] = test system: ART24; test: Antibiotic susceptibility of ART24 lots and cell banks, MIC following EFSA testing recommendations (Table 3); assay type: cell-based, Bacillus amyloliquefaciens; details: for MIC: Bacillus amyloliquefaciens
Experimental: The minimum inhibitory concentration (MIC) of the listed antimicrobials is expressed as μg/mL. Additional studies following EFSA testing recommendations were performed on lyophilized ART24 lots CO-33-10A2 and CO-33-12A2 and Research and Master Cell Banks CO-33-ART24 BHI and CO-33-ART24 SYD, and those results are shown in Table 3.

[3] = 24 hr at 37° C., average results from N = 6
[4] = ART24 source: cell bank CO-33 ART 24 BHI, read-out: MIC, CO-33 ART 24 BHI
[5] = ART24 source: cell bank CO-33 ART 024 SYD, read-out: MIC, CO-33 ART 024 SYD
[6] = ART24 source: lyophilized lot CO-33-10A2, read-out: MIC, CO-33-10A2
[7] = ART24 source: lyophilized lot CO-33-12A2, read-out: MIC, CO-33-12A2
[8] = ART24 source: cell bank CO-33 ART 24 BHI
[9] = ART24 source: cell bank CO-33 ART 024 SYD
[10] = ART24 source: lyophilized lot CO-33-10A2
[11] = ART24 source: lyophilized lot CO-33-12A2

Molecule	MIC [1, 3]	MIC [2, 4]	MIC [2, 5]	MIC [2, 6]	MIC [2, 7]	MIC interpretation, CO-33 ART 24 BHI [2, 8]	MIC interpretation, CO-33 ART 024 SYD [2, 9]	MIC interpretation, CO-33-10A2 [2, 10]	MIC interpretation, CO-33-12A2 [2, 11]	other results
COc1cc(Cc2cnc(N)nc2N)cc(OC)c1OC [Trimethoprim]	≤ 0.12 µg/mL	≤ 0.25 µg/mL	≤ 0.25 µg/mL	≤ 0.25 µg/mL	≤ 0.25 µg/mL					
CC[C@H]1OC(=O)[C@H](C)[C@@H](O[C@H]2C[C@@](C)(OC)[C@@H](O)[C@H](C)O2)[C@H](C)[C@@H](O[C@@H]2O[C@H](C)C[C@H](N(C)C)[C@H]2O)[C@](C)(O)C[C@@H](C)C(=O)[C@H](C)[C@@H](O)[C@]1(C)O [Erythromycin]	0.12 µg/mL (≈ 0.164 µM)	0.12 µg/mL (≈ 0.164 µM)	0.12 µg/mL (≈ 0.164 µM)	0.06 µg/mL (≈ 0.0818 µM)	0.06 µg/mL (≈ 0.0818 µM)	S	S	S	S	
CN(C)[C@@H]1C(O)=C(C(N)=O)C(=O)[C@@]2(O)C(O)=C3C(=O)c4c(O)cccc4[C@@](C)(O)[C@H]3C[C@@H]12 [Tetracycline]	4 µg/mL (≈ 9 µM)	2 µg/mL (≈ 4.5 µM)	2 µg/mL (≈ 4.5 µM)	2 µg/mL (≈ 4.5 µM)	2 µg/mL (≈ 4.5 µM)	S	S	S	S	
Cc1ncc([N+](=O)[O-])n1CCO [Metronidazole]										MIC ([2]; aerobic, ART24 source CO-33-10A2, read-out: MIC, CO-33-10A2 (aerobic)): > 64 µg/mL; MIC ([2]; aerobic, ART24 source CO-33-12A2, read-out: MIC, CO-33-12A2 (aerobic)): > 64 µg/mL; MIC ([2]; aerobic, ART24 source CO-33 ART 24 BHI, read-out: MIC, CO-33 ART 24 BHI (aerobic)): > 64 µg/mL; MIC ([2]; aerobic, ART24 source CO-33 ART 024 SYD, read-out: MIC, CO-33 ART 024 SYD (aerobic)): > 64 µg/mL; MIC ([2]; anaerobic, ART24 source CO-33-10A2, read-out: MIC, CO-33-10A2 (anaerobic)): 64 µg/mL (≈ 374 µM); MIC ([2]; anaerobic, ART24 source CO-33-12A2, read-out: MIC, CO-33-12A2 (anaerobic)): 64 µg/mL (≈ 374 µM); MIC ([2]; anaerobic, ART24 source CO-33 ART 24 BHI, read-out: MIC, CO-33 ART 24 BHI (anaerobic)): 64 µg/mL (≈ 374 µM); MIC ([2]; anaerobic, ART24 source CO-33 ART 024 SYD, read-out: MIC, CO-33 ART 024 SYD (anaerobic)): 64 µg/mL (≈ 374 µM)
O=C(N[C@H](CO)[C@H](O)c1ccc([N+](=O)[O-])cc1)C(Cl)Cl [Chloramphenicol]	4 µg/mL (≈ 12.4 µM)	2 µg/mL (≈ 6.19 µM)	2 µg/mL (≈ 6.19 µM)	2 µg/mL (≈ 6.19 µM)	2 µg/mL (≈ 6.19 µM)	S	S	S	S	
O=C(O)c1cn(C2CC2)c2cc(N3CCNCC3)c(F)cc2c1=O [Ciprofloxacin]	≤ 0.25 µg/mL	≤ 0.03 µg/mL	≤ 0.03 µg/mL	≤ 0.03 µg/mL	≤ 0.03 µg/mL	S	S	S	S	
CC(=O)NC[C@H]1CN(c2ccc(N3CCOCC3)c(F)c2)C(=O)O1 [Linezolid]	0.5 µg/mL (≈ 1.48 µM)	0.5 µg/mL (≈ 1.48 µM)	0.5 µg/mL (≈ 1.48 µM)	0.25 µg/mL (≈ 0.741 µM)	0.5 µg/mL (≈ 1.48 µM)					
Penicillin						S	S	S	S	ART24 MIC [1, 3]: 0.12 to 0.5 µg/mL; MIC, CO-33 ART 24 BHI [2, 8]: ≤ 0.03 µg/mL; MIC, CO-33 ART 024 SYD [2, 9]: 0.06 µg/mL; MIC, CO-33-10A2 [2, 10]: ≤ 0.03 µg/mL; MIC, CO-33-12A2 [2, 11]: ≤ 0.03 µg/mL
CO[C@H]1/C=C/O[C@@]2(C)Oc3c(C)c(O)c4c(O)c(c(/C=N/N5CCN(C)CC5)c(O)c4c3C2=O)NC(=O)/C(C)=C\C=C\[C@H](C)[C@H](O)[C@@H](C)[C@@H](O)[C@@H](C)[C@H](OC(C)=O)[C@@H]1C [Rifampicin]	0.5 µg/mL (≈ 0.608 µM)	0.25 µg/mL (≈ 0.304 µM)	0.25 µg/mL (≈ 0.304 µM)	0.25 µg/mL (≈ 0.304 µM)	0.25 µg/mL (≈ 0.304 µM)	S	S	S	S	
CCC[C@@H]1C[C@@H](C(=O)N[C@@H]([C@H]2O[C@H](SC)[C@H](O)[C@@H](O)[C@H]2O)[C@H](C)Cl)N(C)C1 [Clindamycin]	0.5 to 1 µg/mL (≈ 1.18 to 2.35 µM)	0.25 µg/mL (≈ 0.588 µM)	0.25 µg/mL (≈ 0.588 µM)	0.12 µg/mL (≈ 0.282 µM)	0.25 µg/mL (≈ 0.588 µM)	S	S	S	S	
Gentamicin						S	S	S	S	ART24 MIC [1, 3]: ≤0.5 µg/mL; MIC, CO-33 ART 24 BHI [2, 8]: ≤ 0.06 µg/mL; MIC, CO-33 ART 024 SYD [2, 9]: ≤ 0.06 µg/mL; MIC, CO-33-10A2 [2, 10]: ≤ 0.06 µg/mL; MIC, CO-33-12A2 [2, 11]: ≤ 0.06 µg/mL
NC[C@H]1O[C@H](O[C@H]2[C@H](O)[C@@H](O[C@H]3O[C@H](CO)[C@@H](O)[C@H](N)[C@H]3O)[C@H](N)C[C@@H]2N)[C@H](O)[C@@H](O)[C@@H]1O [Kanamycin]	≤ 2 µg/mL	≤ 0.5 µg/mL	≤ 0.5 µg/mL	≤ 0.5 µg/mL	≤ 0.5 µg/mL	S	S	S	S	
CC1(C)S[C@@H]2[C@H](NC(=O)[C@H](N)c3ccccc3)C(=O)N2[C@H]1C(=O)O [Ampicillin]	0.25 µg/mL (≈ 0.715 µM)	≤ 0.03 µg/mL	≤ 0.03 µg/mL	≤ 0.03 µg/mL	≤ 0.03 µg/mL	S	S	S	S	
Quinupristin-dalfopristin										ART24 MIC [1, 3]: 4 µg/mL; MIC, CO-33 ART 24 BHI [2, 8]: 2 µg/mL; MIC, CO-33 ART 024 SYD [2, 9]: 2 µg/mL; MIC, CO-33-10A2 [2, 10]: 1 µg/mL; MIC, CO-33-12A2 [2, 11]: 2 µg/mL
CCc1c(Cl)c(O)c(Cl)c(O)c1C(=O)O[C@H]1[C@H](O)[C@H](OC)[C@H](OC/C2=C\C=C\C[C@H](O)/C(C)=C/[C@H](CC)[C@@H](O[C@@H]3OC(C)(C)[C@@H](OC(=O)C(C)C)[C@H](O)[C@@H]3O)/C(C)=C/C(C)=C/C[C@@H]([C@@H](C)O)OC2=O)O[C@@H]1C [Fidaxomicin]		4 µg/mL (≈ 3.78 µM)	4 µg/mL (≈ 3.78 µM)	2 µg/mL (≈ 1.89 µM)	4 µg/mL (≈ 3.78 µM)					
CN[C@H](CC(C)C)C(=O)N[C@H]1C(=O)N[C@@H](CC(N)=O)C(=O)N[C@H]2C(=O)N[C@H]3C(=O)N[C@H](C(=O)N[C@H](C(=O)O)c4cc(O)cc(O)c4-c4cc3ccc4O)[C@H](O)c3ccc(c(Cl)c3)Oc3cc2cc(c3O[C@@H]2O[C@H](CO)[C@@H](O)[C@H](O)[C@H]2O[C@H]2C[C@](C)(N)[C@H](O)[C@H](C)O2)Oc2ccc(cc2Cl)[C@H]1O [Vancomycin]						S	S	S	S	MIC ([1]; 24 h): 0.5 to 1 µg/mL (≈ 0.345 to 0.69 µM); MIC ([2]; read-out: MIC, CO-33-10A2): ≤ 0.25 µg/mL; MIC ([2]; read-out: MIC, CO-33-12A2): ≤ 0.25 µg/mL; MIC ([2]; read-out: MIC, CO-33 ART 24 BHI): 0.5 µg/mL (≈ 0.345 µM); MIC ([2]; read-out: MIC, CO-33 ART 024 SYD): ≤ 0.25 µg/mL
Neomycin										ART24 MIC [1, 3]: ≤0.5 µg/mL; MIC, CO-33 ART 24 BHI [2, 8]: ≤0.12 µg/mL; MIC, CO-33 ART 024 SYD [2, 9]: ≤0.12 µg/mL; MIC, CO-33-10A2 [2, 10]: ≤0.12 µg/mL; MIC, CO-33-12A2 [2, 11]: ≤0.12 µg/mL
[H]/N=C(/N)N[C@H]1[C@H](O)[C@@H](O)[C@H](O[C@@H]2O[C@@H](C)[C@](O)(C=O)[C@H]2O[C@@H]2O[C@@H](CO)[C@H](O)[C@@H](O)[C@@H]2NC)[C@@H](N/C(N)=N\[H])[C@@H]1O [Streptomycin]	4 µg/mL (≈ 6.88 µM)	1 µg/mL (≈ 1.72 µM)	2 µg/mL (≈ 3.44 µM)	1 µg/mL (≈ 1.72 µM)	1 µg/mL (≈ 1.72 µM)	S	S	S	S	
